Measurements reported in patent publication US10968203B2, “Pyrimidinyl-pyridyloxy-naphthyl compounds and methods of treating IRE1-related diseases and disorders” (Genentech, Inc., priority 2017, dated 2021).
Structures can show the parent of a compound that is named as a salt.

Test system: XBP1s-luc 293 LUC
Assay: cellular PD assay, XBP1s-LUC reporter (Example 903)
Assay type: cell-based
Settings: Table 2; read-out: XBP1s-luc 293 LUC (IC50)
Summary of the method: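 A luciferase fusion, in frame and expressed only when the XBP1 transcript is spliced, served as the readout of cellular IRE1α activity in an XBP1-Luc reporter line.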

| Compound | IC50 [nM] |
| --- | --- |
| Cc1ccc2c(NS(=O)(=O)CCCF)c(F)ccc2c1Oc1ncccc1-c1ccnc(N[C@H]2CCCNC2)n1 [Example 406, (S)-3-Fluoro-N-(2-fluoro-6-methyl-5-((3-(2-(piperidin-3-ylamino)pyrimidin-4-yl)pyridin-2-yl)oxy)naphthalen-1-yl)propane-1-sulfonamide hydrochloride] | 31 |
| Cc1ccc2c(NC(=O)/C=C/C(F)(F)F)cccc2c1Oc1ncccc1-c1ccnc(N[C@H]2CCCNC2)n1 [Example 407, (S)-4,4,4-Trifluoro-N-(6-methyl-5-((3-(2-(piperidin-3-ylamino)pyrimidin-4-yl)pyridin-2-yl)oxy)naphthalen-1-yl)but-2-enamide] | 221 |
| Cc1ccc2c(NS(=O)(=O)N(C)Cc3ccccc3)c(F)ccc2c1Oc1ncccc1-c1ccnc(N[C@H]2CCCNC2)n1 [Example 410, 4-[2-[[5-[[Benzyl(methyl)sulfamoyl]amino]-6-fluoro-2-methyl-1-naphthyl]oxy]-3-pyridyl]-2-[[(3S)-3-piperidyl]amino]pyrimidine hydrochloride] | 87 |
| Cc1nc(CS(=O)(=O)Nc2c(F)ccc3c(Oc4ncccc4-c4ccnc(N[C@H]5CCCNC5)n4)c(C)ccc23)cs1 [Example 411, (S)—N-(2-Fluoro-6-methyl-5-((3-(2-(piperidin-3-ylamino)pyrimidin-4-yl)pyridin-2-yl)oxy)naphthalen-1-yl)-1-(2-methylthiazol-4-yl)methanesulfonamide hydrochloride] | 12 |
| Cc1cc(CS(=O)(=O)Nc2c(F)ccc3c(Oc4ncccc4-c4ccnc(N[C@H]5CCCNC5)n4)c(C)ccc23)no1 [Example 412, (S)—N-(2-Fluoro-6-methyl-5-((3-(2-(piperidin-3-ylamino)pyrimidin-4-yl)pyridin-2-yl)oxy)naphthalen-1-yl)-1-(5-methylisoxazol-3-yl)methanesulfonamide hydrochloride] | 7 |
| Cc1ccc2c(NS(=O)(=O)C=C3CCC3)c(F)ccc2c1Oc1ncccc1-c1ccnc(N[C@H]2CCCNC2)n1 [Example 413, 1-Cyclobutylidene-N-[2-fluoro-6-methyl-5-[[3-[2-[[(3S)-3-piperidyl]amino]pyrimidin-4-yl]-2-pyridyl]oxy]-1-naphthyl]methanesulfonamide hydrochloride] | 50 |
| Cc1ccc2c(NS(=O)(=O)Cc3ccc(OC(F)(F)F)cc3)c(F)ccc2c1Oc1ncccc1-c1ccnc(N[C@H]2CCCNC2)n1 [Example 419, (S)—N-(2-Fluoro-6-methyl-5-((3-(2-(piperidin-3-ylamino)pyrimidin-4-yl)pyridin-2-yl)oxy)naphthalen-1-yl)-1-(4-(trifluoromethoxy)phenyl)methanesulfonamide hydrochloride] | 129 |
| CCCN(C)S(=O)(=O)Nc1c(F)ccc2c(Oc3ncccc3-c3ccnc(N[C@H]4CCCNC4)n3)c(C)ccc12 [Example 420, 4-[2-[[6-Fluoro-2-methyl-5-[[methyl(propyl)sulfamoyl]amino]-1-naphthyl]oxy]-3-pyridyl]-2-[[(3S)-3-piperidyl]amino]pyrimidine hydrochloride] | 41 |
| CCN(C)S(=O)(=O)Nc1c(F)ccc2c(Oc3ncccc3-c3ccnc(N[C@H]4CCCNC4)n3)c(C)ccc12 [Example 421, 4-[2-[[5-[[Ethyl(methyl)sulfamoyl]amino]-6-fluoro-2-methyl-1-naphthyl]oxy]-3-pyridyl]-2-[[(3S)-3-piperidyl]amino]pyrimidine hydrochloride] | 44 |
| Cc1ccc2c(NC[C@@H](C#N)C(C)C)cccc2c1Oc1ncccc1-c1ccnc(N[C@H]2CCCNC2)n1 [Example 423, (S)-3-Methyl-2-(((6-methyl-5-((3-(2-(((S)-piperidin-3-yl)amino)pyrimidin-4-yl)pyridin-2-yl)oxy)naphthalen-1-yl)amino)methyl) butanenitrile] | 207 |
| CCCS(=O)(=O)Nc1cccc2c(Oc3ncc(OC)cc3-c3ccnc(N[C@H]4CCCNC4)n3)c(C)ccc12 [Example 424, (S)—N-(5-((5-Methoxy-3-(2-(piperidin-3-ylamino)pyrimidin-4-yl)pyridin-2-yl)oxy)-6-methylnaphthalen-1-yl)propane-1-sulfonamide hydrochloride] | 392 |
| Cc1ccc2c(NS(=O)(=O)Cc3cccc(C#N)c3)c(F)ccc2c1Oc1ncccc1-c1ccnc(N[C@H]2CCCNC2)n1 [Example 425, (S)-1-(3-Cyanophenyl)-N-(2-fluoro-6-methyl-5-((3-(2-(piperidin-3-ylamino)pyrimidin-4-yl)pyridin-2-yl)oxy)naphthalen-1-yl)methanesulfonamide hydrochloride] | 16 |
| Cc1ccc2c(NS(=O)(=O)Cc3ccc(C#N)cc3)c(F)ccc2c1Oc1ncccc1-c1ccnc(N[C@H]2CCCNC2)n1 [Example 426, (S)-1-(4-Cyanophenyl)-N-(2-fluoro-6-methyl-5-((3-(2-(piperidin-3-ylamino)pyrimidin-4-yl)pyridin-2-yl)oxy)naphthalen-1-yl)methanesulfonamide hydrochloride] | 5 |
| Cc1ccc2c(NS(=O)(=O)N(C)CC(F)(F)F)c(F)ccc2c1Oc1ncccc1-c1ccnc(N[C@H]2CCCNC2)n1 [Example 427, 4-[2-[[6-Fluoro-2-methyl-5-[[methyl(2,2,2-trifluoroethyl)sulfamoyl]amino]-1-naphthyl]oxy]-3-pyridyl]-2-[[(3S)-3-piperidyl]amino]pyrimidine hydrochloride] | 6 |
| Cc1ccc2c(NS(=O)(=O)N3CCCC3)c(F)ccc2c1Oc1ncccc1-c1ccnc(N[C@H]2CCCNC2)n1 [Example 428, N-[2-Fluoro-6-methyl-5-[[3-[2-[[(3S)-3-piperidyl]amino]pyrimidin-4-yl]-2-pyridyl]oxy]-1-naphthyl]pyrrolidine-1-sulfonamide hydrochloride] | 28 |
| COc1cccc(CS(=O)(=O)Nc2c(F)ccc3c(Oc4ncccc4-c4ccnc(N[C@H]5CCCNC5)n4)c(C)ccc23)c1 [Example 429, (S)—N-(2-Fluoro-6-methyl-5-((3-(2-(piperidin-3-ylamino)pyrimidin-4-yl)pyridin-2-yl)oxy)naphthalen-1-yl)-1-(3-methoxyphenyl)methanesulfonamide hydrochloride] | 5 |
| COCCCNc1cccc2c(Oc3ncccc3-c3ccnc(N[C@H]4CCCNC4)n3)c(C)ccc12 [Example 430, 4-[2-[[5-(3-Methoxypropylamino)-2-methyl-1-naphthyl]oxy]-3-pyridyl]-N-[(3S)-3-piperidyl]pyrimidin-2-amine hydrochloride] | 275 |
| COCCS(=O)(=O)Nc1c(F)ccc2c(Oc3ncccc3-c3ccnc(N[C@@H]4CNC[C@H](C)C4)n3)c(C)ccc12 [Example 431, N-[2-Fluoro-6-methyl-5-[[3-[2-[[(3S,5R)-5-methyl-3-piperidyl]amino]pyrimidin-4-yl]-2-pyridyl]oxy]-1-naphthyl]-2-methoxy-ethanesulfonamide hydrochloride] | 34 |
| Cc1ccc2c(NS(=O)(=O)CC3CC(F)(F)C3)c(F)ccc2c1Oc1ncccc1-c1ccnc(N[C@H]2CCCNC2)n1 [Example 433, (S)-1-(3,3-Difluorocyclobutyl)-N-(2-fluoro-6-methyl-5-((3-(2-(piperidin-3-ylamino)pyrimidin-4-yl)pyridin-2-yl)oxy)naphthalen-1-yl)methanesulfonamide] | 76 |
| Cc1ccc2c(NS(=O)(=O)Cc3ccccc3C#N)c(F)ccc2c1Oc1ncccc1-c1ccnc(N[C@H]2CCCNC2)n1 [Example 434, (S)-1-(2-Cyanophenyl)-N-(2-fluoro-6-methyl-5-((3-(2-(piperidin-3-ylamino)pyrimidin-4-yl)pyridin-2-yl)oxy)naphthalen-1-yl)methanesulfonamide hydrochloride] | 6 |
| COc1c(Cl)cccc1CS(=O)(=O)Nc1c(F)ccc2c(Oc3ncccc3-c3ccnc(N[C@H]4CCCNC4)n3)c(C)ccc12 [Example 437, (S)-1-(3-Chloro-2-methoxyphenyl)-N-(2-fluoro-6-methyl-5-((3-(2-(piperidin-3-ylamino)pyrimidin-4-yl)pyridin-2-yl)oxy)naphthalen-1-yl)methanesulfonamide hydrochloride] | 18 |
| Cc1ccc2c(NS(=O)(=O)Cc3ccc(C(F)F)cc3)c(F)ccc2c1Oc1ncccc1-c1ccnc(N[C@H]2CCCNC2)n1 [Example 438, (S)-1-(4-(Difluoromethyl)phenyl)-N-(2-fluoro-6-methyl-5-((3-(2-(piperidin-3-ylamino)pyrimidin-4-yl)pyridin-2-yl)oxy)naphthalen-1-yl)methanesulfonamide hydrochloride] | 5 |
| Cc1ccc2c(NS(=O)(=O)CC(F)(F)C(F)(F)F)c(F)ccc2c1Oc1ncccc1-c1ccnc(N[C@H]2CCCNC2)n1 [Example 439, (S)-2,2,3,3,3-Pentafluoro-N-(2-fluoro-6-methyl-5-((3-(2-(piperidin-3-ylamino)pyrimidin-4-yl)pyridin-2-yl)oxy)naphthalen-1-yl)propane-1-sulfonamide hydrochloride] | 155 |
| Cc1ccc2c(NS(=O)(=O)N(C)C3CC3)c(F)ccc2c1Oc1ncccc1-c1ccnc(N[C@H]2CCCNC2)n1 [Example 440, 4-[2-[[5-[[Cyclopropyl(methyl)sulfamoyl]amino]-6-fluoro-2-methyl-1-naphthyl]oxy]-3-pyridyl]-2-[[(3S)-3-piperidyl]amino]pyrimidine hydrochloride] | 26 |
| Cc1ccc2c(NS(=O)(=O)N(C)CCC(F)(F)F)c(F)ccc2c1Oc1ncccc1-c1ccnc(N[C@H]2CCCNC2)n1 [Example 441, 4-[2-[[6-Fluoro-2-methyl-5-[[methyl(3,3,3-trifluoropropyl)sulfamoyl]amino]-1-naphthyl]oxy]-3-pyridyl]-2-[[(3S)-3-piperidyl]amino]pyrimidine hydrochloride] | 48 |
| Cc1ccc2c(NS(=O)(=O)CCC(C)(F)F)c(F)ccc2c1Oc1ncccc1-c1ccnc(N[C@H]2CCCNC2)n1 [Example 442, (S)-3,3-Difluoro-N-(2-fluoro-6-methyl-5-((3-(2-(piperidin-3-ylamino)pyrimidin-4-yl)pyridin-2-yl)oxy)naphthalen-1-yl)butane-1-sulfonamide hydrochloride] | 40 |
